In paper PMC2825141 (Journal of medicinal chemistry, 2009):

How the values were obtained:
G9a [1] = biological target: T1, G9a (Homo sapiens, UniProt Q96KQ7); test: G9a FP assay; format: binding; conditions: compared to 2a
T1 sequence (Q96KQ7 1-1210): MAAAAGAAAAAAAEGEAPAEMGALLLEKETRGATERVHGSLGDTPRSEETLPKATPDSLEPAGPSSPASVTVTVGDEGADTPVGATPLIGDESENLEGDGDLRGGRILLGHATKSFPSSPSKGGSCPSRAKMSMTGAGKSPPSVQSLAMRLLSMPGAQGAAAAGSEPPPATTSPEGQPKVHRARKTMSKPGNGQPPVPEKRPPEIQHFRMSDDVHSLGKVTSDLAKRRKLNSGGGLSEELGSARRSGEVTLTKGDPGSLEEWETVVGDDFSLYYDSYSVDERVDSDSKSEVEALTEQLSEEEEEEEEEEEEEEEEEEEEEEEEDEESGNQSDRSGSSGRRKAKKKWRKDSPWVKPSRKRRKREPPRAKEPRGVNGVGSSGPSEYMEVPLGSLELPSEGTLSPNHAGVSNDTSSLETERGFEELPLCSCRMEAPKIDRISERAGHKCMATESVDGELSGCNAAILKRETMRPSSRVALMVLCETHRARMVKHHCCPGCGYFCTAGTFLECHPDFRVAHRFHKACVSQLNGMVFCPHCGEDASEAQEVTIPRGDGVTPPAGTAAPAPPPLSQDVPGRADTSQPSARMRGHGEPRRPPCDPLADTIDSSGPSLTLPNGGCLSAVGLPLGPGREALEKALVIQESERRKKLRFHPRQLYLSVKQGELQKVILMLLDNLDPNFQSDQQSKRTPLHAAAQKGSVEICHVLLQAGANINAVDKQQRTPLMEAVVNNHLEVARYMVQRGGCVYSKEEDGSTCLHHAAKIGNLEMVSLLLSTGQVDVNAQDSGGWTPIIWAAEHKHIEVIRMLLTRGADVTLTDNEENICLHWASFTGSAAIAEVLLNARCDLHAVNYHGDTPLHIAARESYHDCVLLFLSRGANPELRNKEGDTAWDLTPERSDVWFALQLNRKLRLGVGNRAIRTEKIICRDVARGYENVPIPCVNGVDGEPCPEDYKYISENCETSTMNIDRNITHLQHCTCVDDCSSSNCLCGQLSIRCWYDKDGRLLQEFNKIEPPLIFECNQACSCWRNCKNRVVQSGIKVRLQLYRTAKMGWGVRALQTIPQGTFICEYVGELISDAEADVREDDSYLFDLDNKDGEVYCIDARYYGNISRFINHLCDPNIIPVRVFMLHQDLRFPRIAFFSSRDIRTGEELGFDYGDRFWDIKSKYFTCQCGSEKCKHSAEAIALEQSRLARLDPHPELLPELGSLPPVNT

G9a [2] = biological target: T1, G9a; test: DSF stabilization of G9a; format: binding; conditions: compared to 2a

- Stabilization of G9a in DSF (G9a [2]): stabilized G9a better compared to 2a
Structure (SMILES): COc1cc2c(NC3CCN(C)CC3)nc(N3CCCN(C)CC3)nc2cc1OCCCN(C)C [Compound 8]
- Displacement of fluorescein labeled 15-mer H3 peptide (1–15) (G9a [1]): displaced fluorescein labeled 15-mer H3 peptide (1–15) better than 2a
